# “Also recorded” adds a separate entry of the source.
# What was measured:
# [1] = tested on: S. aureus AH1747 (agr III); assay: Broth microdilution growth inhibition (MIC); assay type: cell-based, Staphylococcus aureus; details: for IC50: ≥50% growth inhibition; for IC50 / MIC: ND = not detected at 4–563 μM; for MIC: ≥90% growth inhibition
# Procedure: (§1) Fraction 430F-F5 and isolated compounds of S. terebinthifolia 1-3, were evaluated for minimum inhibitory concentrations (MICs) against the four agr groups, the biofilm test strain (UAMS-1) and NRS249 (for δ-toxin quantification experiments) following the Clinical Laboratory Standards Institute (CLSI) M100-S23 guidelines for microtiter broth dilution testing. Fraction, compounds 1-3 and vehicle were tested at a concentration range of 4 to 563 μM, using 2-fold serial dilution. The optical density (OD600nm) was measured with a BioTek Cytation 3 multimode plate reader, to calculate percent inhibition of growth. […] Control included the vehicle (DMSO) and antibiotic (Ampicillin, MP Biomedicals Inc). All tests were performed in triplicate and repeated using a new stock of bacteria on a separate day.
# S. aureus UAMS-929 = assay: Broth microdilution growth inhibition (MIC); assay type: cell-based, Staphylococcus aureus; details: for IC50: UAMS929, read-out: IC50 (growth)
# Procedure: as §1
# S. aureus UAMS-1 = assay: Broth microdilution growth inhibition (MIC); assay type: cell-based, Staphylococcus aureus; details: ND = not detected at 4–563 μM; for IC50: UAMS1, ≥50% growth inhibition
# Procedure: as §1
# [2] = tested on: S. aureus AH1263; LAC (agr I); assay: Broth microdilution growth inhibition (MIC); assay type: cell-based, Staphylococcus aureus; details: for IC50: read-out: IC50 (growth)
# Procedure: as §1
# S. aureus NRS249 (agr I) = assay: Broth microdilution growth inhibition (MIC); assay type: cell-based, Staphylococcus aureus; details: ND = not detected at 4–563 μM; for IC50: ≥50% growth inhibition; for MIC: ≥90% growth inhibition
# Procedure: as §1
# S. aureus UAMS-1 biofilm = assay: Biofilm formation, human plasma protein-coated microtiter assay; assay type: cell-based, Staphylococcus aureus; details: crystal violet; for concentrations that reduced biofilm: for 2 and 3 bacterial growth also reduced
# Procedure: All compounds were examined (2–281 μM) for impact on S. aureus biofilm formation using a human plasma protein-coated assay as previously described[49],[51],[52]. Additionally, to monitor for any growth impact in this assay, the optical density of planktonic cells in the biofilm wells was calculated by transferring the supernatant to a new 96-well plate and reading the OD600nm in a BioTek plate reader. S. aureus isolate UAMS-1 was used for the biofilm assay, and its isogenic sarA mutant (UAMS-929), which has a biofilm deficient phenotype, served as a positive control. All tests were performed in triplicate and repeated using a new stock of bacteria on a separate day.
# [3] = HaCaT cytotoxicity assay (LDH); assay type: cell-based; details: human, HaCaT keratinocyte cells, read-out: IC50 for cytotoxicity to HaCaTs
# Procedure: The HaCaT cell line was maintained and cytotoxicity of compounds (1-3) were assessed using the LDH cytotoxicity assay as previously described. The Therapeutic Index (TI) was calculated as a ratio of the TD50 (Toxic dose for cytotoxicity at IC50) and ED50 (effective dose for quorum sensing inhibiton IC50): = TD50/ED50 . Cytotoxicity of supernatants was further evaluated using a viability/cytotoxicity assay and imaged with fluorescent microscopy as previously described. All tests were performed in triplicate and the full experiment was repeated on a separate day using fresh cell stock.
# [4] = tested on: all S. aureus accessory gene regulator (agr) alleles; assay: microbe, parasite or virus in culture; assay type: cell-based; details: Staphylococcus aureus, read-out: IC50 values for quorum sensing inhibition, range over all four agr types
# Procedure: (§2) S. aureus agr reporter strains AH1677 (agr I), AH430 (agr II), AH1747 (agr III) and AH1872 (agr IV) were grown overnight in TSB supplemented with chloramphenicol at 37 °C while shaking at 200 rpm. Cultures of S. aureus were standardized by optical density (OD600nm) matching to a 0.5 McFarland standard to reach a final inoculum density in the wells of 5 × 10^5 CFU mL^−1 in TSB, supplemented with 10 μg/mL chloramphenicol. […] Black sided, 96-well, clear bottom, tissue-culture treated plates (Costar 3603) with final well volume of 200 μL were used for all agr inhibition assays. Plates were incubated in a humidified chamber at 37 °C while shaking at 260 rpm. After 24 hours, plates were removed and OD600 and fluorescence were measured by plate reader at an excitation of 493 nm and emission of 535 nm. All tests were performed in triplicate and repeated using a new stock of bacteria on a separate day.
# [5] = tested on: agr activity, AH1677 (agr I); assay: microbe, parasite or virus in culture; assay type: cell-based; details: Staphylococcus aureus, 24 h, read-out: IC50 for quorum sensing inhibitory activity
# Procedure: as §2
# [6] = tested on: agr activity, AH1872 (agr IV); assay: microbe, parasite or virus in culture; assay type: cell-based; details: Staphylococcus aureus, 24 h; for IC50: read-out: IC50 for quorum sensing inhibitory activity
# Procedure: as §2
# [7] = tested on: agr activity, AH1747 (agr III); assay: microbe, parasite or virus in culture; assay type: cell-based; details: Staphylococcus aureus, 24 h; for IC50: read-out: IC50 for quorum sensing inhibitory activity; for IC90: read-out: IC90 for quorum sensing inhibitory activity
# Procedure: as §2
# [8] = tested on: agr activity, AH430 (agr II); assay: microbe, parasite or virus in culture; assay type: cell-based; details: Staphylococcus aureus, 24 h; for IC50: read-out: IC50 for quorum sensing inhibitory activity; for IC90: read-out: IC90 for quorum sensing inhibitory activity
# Procedure: as §2
# MRSA (LAC, USA300) = assay: Murine model of MRSA skin infection (dermonecrosis); assay type: in vivo; details: BALB/c mice, intradermal, 1×10^8 CFU LAC with single 50 µg dose at time of infection; vs DMSO vehicle
# Description: A previously described murine model of MRSA skin infection was used to determine the efficacy of each Schinus compound as an anti-infective[25]. All animal experiments described herein were approved by and conducted in accordance with the recommendations of the Animal Care and Use Committee at the University of Colorado Anschutz Medical Campus (IACUC protocol number 117217). One day prior to inoculation, the abdominal hair of 8 week old female BALB/c mice was shaved and chemically removed with topical application of Nair for 1 minute. LAC (USA300, AH1263) was grown in TSB media overnight at 37 °C in a shaking incubator (200 rpm). Overnight LAC culture was diluted 1:100 in fresh TSB media and allowed to grow to early log phase (~2 hr to OD600nm 0.5). Cells were washed in sterile PBS and resuspended to achieve an inoculum of 1×10^8 CFU. 50 μL inoculum suspensions containing 1×10^8 CFU LAC and 50 μg of each compound 1-3 (diluted in DMSO) or DMSO vehicle control were injected intradermally into the abdominal skin of each BALB/c mouse. Baseline body weights for the mice were taken prior to injection and each day following. For determination of lesion size, digital photos of skin lesions were taken with an iPhone camera and analyzed with ImageJ software for Mac. Inoculum CFU was verified by serial dilution, plating, and colony counting after overnight incubation of the plate.
# [9] = UAMS-929, ≥90% growth inhibition, ND = not detected at 4–563 μM
# [10] = Staphylococcus aureus, UAMS1, ≥90% growth inhibition
# [11] = AH1263, LAC (agr I), ≥90% growth inhibition, ND = not detected at test range 4–563 μM
Structure (SMILES),IC50 ([1]; Staphylococcus aureus),MIC ([1]; Staphylococcus aureus),"MIC (S. aureus UAMS-929; Staphylococcus aureus, UAMS929)",IC50 (S. aureus UAMS-929; Staphylococcus aureus),MIC (S. aureus UAMS-929; [9]),IC50 (S. aureus UAMS-1; Staphylococcus aureus),MIC (S. aureus UAMS-1; [10]),MIC (S. aureus UAMS-1; ≥90% growth inhibition),MIC ([2]; Staphylococcus aureus),IC50 ([2]; Staphylococcus aureus),concentrations that increased biofilm formation (S. aureus UAMS-1 biofilm),concentrations that reduced biofilm (S. aureus UAMS-1 biofilm),IC50 [3],IC50 [4],IC50 [5],IC50 [6],IC50 [7],IC90 [7],IC50 [8],IC90 [8],also measured
"CC(=CCCC(C)C1CCC2(C)C3=CCC4C(C)(C)C(O)CCC4(C)C3CCC12C)C(=O)O (stereo not drawn) [Compound 3, 3α-hydroxytirucalla-7,24Z-dien-26-oic acid]",9 µM,18 µM,70 µM,35 µM,70 µM,35 µM,70 µM,70 µM,141 µM,35 µM,2 to 16 µM,≥ 35 µM,70 µM,4 to 9 µM,4 µM,9 µM,9 µM,18 µM,9 µM,281 µM,MIC [1]: 18 µM; IC50 (S. aureus NRS249 (agr I); Staphylococcus aureus): 18 µM; MIC (S. aureus NRS249 (agr I); Staphylococcus aureus): 281 µM; IC90 ([6]; read-out: IC90 for quorum sensing inhibitory activity): 281 µM
"CC1(C)CCC2(C(=O)O)CCC3(C)C(=CCC4C5(C)CCC(=O)C(C)(C)C5CCC43C)C2C1 (stereo not drawn) [Compound 1, 3-oxo-olean-12-en-28-oic acid]",141 µM,281 µM,–,–,–,> 563 µM,> 563 µM,–,–,–,2 to 70 µM,141 to 281 µM,140 µM,4 to 70 µM,18 µM,35 µM,70 µM,281 µM,4 µM,70 µM,"growth inhibition ([1]; at up to 80 µM): ~ 15%; MIC [2, 11]: > 563 µM"
"CC(=CCCC(C)C1CCC2(C)C3=CCC4C(C)(C)C(=O)CCC4(C)C3CCC12C)C(=O)O (stereo not drawn) [Compound 2, 3-oxotirucalla-7,24Z-dien-26-oic acid]",–,–,70 µM,35 µM,70 µM,35 µM,70 µM,70 µM,563 µM,141 µM,2 to 16 µM,≥ 35 µM,70 µM,2 to 9 µM,4 µM,9 µM,9 µM,281 µM,2 µM,281 µM,"MIC [2, 11]: 563 µM; IC50 (S. aureus NRS249 (agr I); Staphylococcus aureus): 9 µM; MIC (S. aureus NRS249 (agr I); Staphylococcus aureus): 18 µM; MIC (S. aureus NRS249 (agr I)): 18 µM; dermonecrotic lesion / skin damage (MRSA (LAC, USA300)): reduced the dermonecrotic lesion area to nearly undetectable levels; also recorded: decreased MRSA-associated tissue damage to the limit of detection"

# Source: PMC7229044, “Triterpenoid acids isolated from Schinus terebinthifolia fruits reduce Staphylococcus aureus virulence and abate dermonecrosis” (Scientific Reports, 2020)
